According to US12280026B2, “Use of repirinast in the prophylaxis or treatment of renal fibrosis or kidney disease” (ALGERNON PHARMACEUTICALS INC., priority 2018, dated 2025):
Entries after “also recorded” stand apart in the source; their conditions may differ.

Tests used:
Format in all cases: in vivo
[1] = Example 1: UUO mice, mean body weight change following surgery; conditions: Example 1, mostly post-surgical day 14, male C57BL/6 mice, PO QD days 1-14, doses of Table 1
Procedure: (§1) Male 9-12 week old C57BL/6 mice of 23-25 grams body weight were used. All mice were acclimated for a minimum of 5 days prior to the start of the study and housed individually in microisolators throughout the study in a 12:12 light-dark cycle on a standard maintenance mouse chow diet (Harlan Teklad 2018) with food and water given ad libitum. Prior to surgery, all mice were weighed for baseline body weight.
(§2) The UUO surgical intervention was performed according to previously described methods known in the art (Le Meur Y et al., Macrophage accumulation at a site of renal inflammation is dependent on the M-CSF/c-fms pathway, J Leukocyte Biol., 72:530-537; 2002).
(§3) All mice were first anesthetized by intraperitoneal injection with a rodent cocktail (ketamine 10 mg/mL and Xyaline 1 mg/mL) in normal saline (10 μL/g body weight). Pedal reflex and movement of the vibrissae were used to determine the state of unconsciousness. A state of unconsciousness was confirmed after a period of about 5 minutes in all animals. All mice were then shaved on the left side of the abdomen. The shaved area was first swabbed with iodine and then swabbed with alcohol. A vertical incision was made through the skin with a #22 scalpel and the skin was then retracted. A further incision of about 2.5 cm was then made through the peritoneum avoiding any major blood vessels. The peritoneum was then retracted and the left kidney was exposed.
(§4) The left kidney was then brought to the surface by hooking the ureter directly beneath the kidney with sterile forceps and gently manipulating the kidney upward. The ureter was ligated at two points directly below the kidney with 5-0 surgical silk with excess suture cut away and discarded post-ligation. The kidney was then gently placed back to its correct anatomical position and the abdomen was lavaged with 1 mL sterile saline to replenish fluid loss. The peritoneum and then skin were sutured with 5-0 Mersilene, and the incision site was gently wiped with iodine. All mice were then placed individually in clean cages that were set on top of a thermal blanket until recovery at about 30-60 minutes later. In some examples, sham surgery was performed as a control by following all steps of the UUO surgical intervention procedure except ligation.
(§5) Following surgery, the mice were divided into 14 individual study groups of 8 mice each and, following post-surgical recovery, administered a once-daily oral treatment for 14 days. The mice in 12 of the 14 study groups (hereafter known as “treatment groups”) had all received the UUO surgical ligation and were treated individually with a distinct pharmacologic compound as set out in Table 1. The mice in 2 of the 14 study groups were treated individually with a pharmaceutically acceptable vehicle with no active ingredient. The pharmaceutically acceptable vehicle in all groups was 0.5% carboxymethyl cellulose (CMC). All mice were sacrificed with CO2 on post-surgical day 15.
(§6) The dose selected for the animal studies was determined by taking the maximum known human daily dose, dividing by the average weight of an adult (˜60-70 kg) to get a human mg/kg dose. […]
Body weight: The body weights were measured on days 1, 2, 5, 8, 10 and 14 using a laboratory balance.
Body weights were measured on post-surgical days 1, 2, 5, 8, 10 and 14 as previously described. The mean body weight change of each study group was calculated using the body weight average of all mice in each study group.

[2] = tested on: C57BL/6 mice with UUO surgical ligation; assay: Example 1: UUO mice, kidney weight evaluation (ligated vs non-ligated kidney); conditions: doses of Table 1
Procedure: as §1
The UUO surgical intervention was performed according to previously described methods known in the art (Le Meur Y et al., Macrophage accumulation at a site of renal inflammation is dependent on the M-CSF/c-fms pathway, J Leukocyte Biol., 72:530-537; 2002). […]
as §6
Kidney weight: The UUO was then examined in situ to ensure that the surgical ligation ties remained patent. […] Weights of both kidneys were measured using a laboratory balance.
Kidney Weight Evaluation: Kidney weight indicating, which indicates functional and pathological changes in the kidney, was evaluated by measuring the weight of both the ligated (UUO) and non-ligated kidneys as previously described. […]

[3] = tested on: C57BL/6 mice with UUO surgical ligation; assay: Example 1: UUO mice, renal function evaluation (plasma BUN, creatinine); conditions: Example 1
Procedure: as §1, §2, §3, §4, §5
The dose selected for the animal studies was determined by taking the maximum known human daily dose, dividing by the average weight of an adult (˜60-70 kg) to get a human mg/kg dose. Then that number was multiplied by 12 to convert to a mouse dose based on conventional dosing tables. See Nair and Jacob, J Basic Clin Pharm March 2016-May 2016, 7(2):27-31.
Serum collection: A blood sample was then collected from all mice and plasma analyzed for urea nitrogen and creatinine. Plasma was stored at −80° C. for possible future analysis.
Renal Function Evaluation: Renal function and disease progression was evaluated by BUN (blood urea nitrogen) as previously described. The BUN of each study group consisted of the BUN average of all mice in each study group.

[4] = tested on: C57BL/6 mice with UUO surgical ligation; assay: Example 1: UUO mice, renal fibrosis evaluation (Sirius Red histology score); conditions: Bemithyl 200, Emoxypine 160, Suplatast Tosylate 60, Udenafil 40, Telmisartan 5 mg/kg PO QD, 4-methylbenzenesulfonate
Procedure: as §1, §2, §3, §4, §5, §6
Histopathology: Formalin-fixed kidney cross-section samples were subjected histopathological scoring with Sirius Red staining, and imaged at a magnification of ×20, using standard techniques. All three sections were stained and evaluated. […] The presence of interstitial damage and severity score was assessed according to the following criteria: 0=normal, 1=light, 2=moderate, 3=severe. […]

SMILES | Mean body weight change, comparison with control groups, in words [1] | Ligated kidney weight in comparison to control groups, in words [2] | Reduction in BUN compared to vehicle, significance in words ([3]; Bonferroni post-test, Suplatast Tosylate 60, Iguratimod 15, Lobenzarit 48, Actarit 60, Udenafil 40 mg/kg PO QD) | BUN in comparison to control groups, in words ([3]; UUO, male C57BL/6 mice, PO QD days 1-14, doses of Table 1) | Kidney fibrosis / Histology Score, significance and comparison in words [4]
CCn1c(=O)c2c(nc(/C=C/c3ccc(OC)c(OC)c3)n2C)n(CC)c1=O [Istradefylline, 8-[(E)-2-(3,4-dimethoxyphenyl)vinyl]-1,3-diethyl-7-methyl-3,7-dihydro-1H-purine-2,6-dione] | greater decrease in body weight | increased in comparison to the remaining 13 study groups |  |  | 
CCOCC(O)COc1ccc(NC(=O)CC[S+](C)C)cc1.Cc1ccc(S(=O)(=O)[O-])cc1 (stereo not drawn) [Suplatast Tosylate, (3-{[4-(3-ethoxy-2-hydroxypropoxy)phenyl]amino}-3-oxopropyl)(dimethyl)sulfonium 4-methylbenzenesulfonate] | comparable to that of the surgery vehicle control group |  | significant reductions in BUN | decreased in comparison to the sham surgery control group | the same as the positive control treatment group; also recorded: significant reductions in kidney fibrosis; also recorded: significant reduction in fibrosis compared to vehicle
